# From article PMC12040169 (PLOS Biology, 2025)
# Test: in vitro
# Details: human, hela cells, % viability
row,SMILES,"viability at 28.5 h, 10 µM"
1,Cc1cc(C)nc(SCCCn2c(=O)[nH]c3ccccc32)n1 [CBK264485],112%
2,CN(C)CCN1C(=O)C(O)=C(C(=O)c2ccco2)C1c1ccc([N+](=O)[O-])cc1 (centres unmarked) [CBK264486],109%
3,O=c1c(Oc2ccc3ccccc3c2)c(C(F)(F)F)oc2c(CN3CCOCC3)c(O)ccc12 [CBK264487],103%
4,NS(=O)(=O)c1ccc(NC(=O)c2cccnc2)cc1 [CBK264488],106%
5,O=C(C1=C(O)C(=O)N(CCN2CCOCC2)C1c1cccc(Br)c1)c1ccco1 (centres unmarked) [CBK264490],94.4%
6,COc1ccc(OC)c(C2C(C(=O)c3ccc(C)cc3)=C(O)C(=O)N2Cc2cccnc2)c1 (centres unmarked) [CBK264492],113%
7,Cc1ccc2ccccc2c1Cn1cc(-c2ccc([N+](=O)[O-])cc2)nc1SCC(=O)NC(C)(C)C [CBK264493],115%
8,c1ccc(-c2csc3ncnc(-n4cnc5ccccc54)c23)cc1 [CBK264494],109%
9,CC(=O)N/C(=C/c1ccc([N+](=O)[O-])cc1)C(=O)Nc1cccc(C(=O)O)c1 [CBK264495],94.8%
10,Cc1oc2c(CN(C)C)c(O)ccc2c(=O)c1-c1cnn(-c2ccccc2)c1 [CBK264496],101%
11,Cc1cc(C(=O)O)cc(S(=O)(=O)N2CCOCC2)c1C [CBK264497],89.5%
12,O=C(O)/C=C/C(=O)Nc1ccc(S(=O)(=O)NCc2ccco2)cc1 [CBK264500],106%
13,COc1cc(/C=C2\SC(=N)NC2=O)cc(Cl)c1OS(=O)(=O)c1ccc(NC(C)=O)cc1 [CBK264502],107%
14,COc1cc(-c2nc(-c3ccc(Cl)cc3)c(-c3ccccc3)[nH]2)c([N+](=O)[O-])cc1OC [CBK264503],98.9%
15,O=C(OCc1ccccc1)Sc1nnc(-c2ccc([N+](=O)[O-])cc2)o1 [CBK264504],91.3%
16,CCN(CC)S(=O)(=O)c1csc(C(=O)Nc2cccc([N+](=O)[O-])c2)c1 [CBK264505],91.3%

row,SMILES,"viability at 28.5 h, 10 µM"
1,O=C(C1=C(O)C(=O)N(CCN2CCOCC2)C1c1ccco1)c1cccs1 (centres unmarked) [CBK264506],96%
2,O=C(O)CC1SC(N/N=C/c2ccc(-c3ccc(Cl)cc3[N+](=O)[O-])o2)=NC1=O (centres unmarked) [CBK264507],108%
3,CCC(NS(=O)(=O)c1ccc(OC)cc1)C(=O)O (centres unmarked) [CBK264509],100%
4,Cc1c(C)n(O)[n+]([O-])c1-c1ccccc1 [CBK264510N],103%
5,CN(C)CCCN1C(=O)C(O)=C(C(=O)c2cccs2)C1c1cccnc1 (centres unmarked) [CBK264511],88.2%
6,Cc1nc2c(C)cccc2c(O)c1CN1CCCCCC1 [CBK264512],98.1%
7,O=C(C1=C(O)C(=O)N(Cc2cccnc2)C1c1ccncc1)c1ccc(Cl)cc1 (centres unmarked) [CBK264513],94.8%
8,O=C(O)CC1S/C(=N/N=C/c2ccc(-c3cccc([N+](=O)[O-])c3)o2)NC1=O (centres unmarked) [CBK264517],113%
9,Cc1n[nH]c(O)c1C(c1ccc(OC(=O)c2ccccc2Cl)cc1)c1c(C)n[nH]c1O [CBK264520],101%
10,CCOC(=O)CCc1nc2ccccc2nc1O [CBK264526],106%
11,CCc1cc2c(=O)c(-c3cnn(-c4ccccc4)c3)c(C(F)(F)F)oc2c(CN(C)C)c1O [CBK264530],90.9%
12,O=C(C1=C(O)C(=O)N(CCCN2CCOCC2)C1c1cccs1)c1cccs1 (centres unmarked) [CBK264533],111%
13,Cc1ccc(S(=O)(=O)c2cccc(S(N)(=O)=O)c2)cc1S(N)(=O)=O [CBK264535],91.7%
14,CC1CCN(S(=O)(=O)c2ccc(NC(=O)c3ccc(Br)o3)cc2)CC1 [CBK264536],101%
15,CN(C)S(=O)(=O)c1ccc(C(=O)C2=C(O)C(=O)N(CCN3CCOCC3)C2c2ccccc2)cc1 (centres unmarked) [CBK264540],111%
16,Cc1ccc(C)c(-c2nn(-c3ccccc3)cc2/C=C2\SC(=S)N(CC(=O)O)C2=O)c1 [CBK264541],98.4%
